Results: patent publication US6462174B1, “Amorphous compound” (AstraZeneca AB, priority 2001, dated 2002)

Key:
[1] = Solubility in toluene (antisolvent); format: physicochemical
Method: When the volume was reduced to 100-150 ml, another portion of toluene was added and the procedure repeated.

[2] = cited from earlier work
[3] = Dynamic vapour sorption (DVS) stability test; format: physicochemical; conditions: first sorption process (Cycle 1 Sorp), FIG. 3
[4] = Differential Scanning Calorimetry (DSC); format: physicochemical; conditions: dry amorphous lisinopril
Method: Differential Scanning Calorimetry (DSC) was performed on approximately 0.5-3 mg sample, using a Mettler DSC820 instrument, according to standard methods, for example those described in Höhne et al. (1996) Differential scanning Calorimetry, Springer, Berlin.

[5] = Thermal Mechanical Analysis (TMA); format: physicochemical; conditions: heating rate 10° C./min, 30-160° C.
Method: The method involves compressing 140 mg of material in a punch and die (3 mm) to 2 KN. The compressed pellet was then placed on the TMA and the 1.1 mm probe placed on the top face. A heating rate of 10° C./min was used and the sample was heated from 30-160° C.

Q: With NCCCC[C@H](NC(CCc1ccccc1)C(=O)O)C(=O)N1CCC[C@H]1C(=O)O (stereo partly drawn) [lisinopril, (S)-1-[N^2-(1-carboxy-3-phenylpropyl]-L-lysyl]-L-proline] as the molecule, how does the solubility in toluene [1] read?
A: insoluble

Q: What about the “effective half-life of accumulation” value ([2]; multiple dosing) of the same molecule?
A: about 12.6 hours

Q: What about the “time to peak serum concentrations” value ([2]; oral administration) of the same molecule?
A: ≤ 7 h

Q: With NCCCC[C@H](NC(CCc1ccccc1)C(=O)O)C(=O)N1CCC[C@H]1C(=O)O (stereo partly drawn) [amorphous lisinopril, (S)-1-[N^2-(1-carboxy-3-phenylpropyl]-L-lysyl]-L-proline] as the molecule, how does the “physical stability to water-induced crystallisation (DVS)” value [3] read?
A: no expulsion of absorbed water due to recrystallisation was observed

Q: What about the “glass transition temperature (Tg)” value [4] of the same molecule?
A: 125 °C

Q: What about the glass transition temperature [5] of the same molecule?
A: 129 °C
